Measured values taken from ChEMBL document CHEMBL1129070, “(-)-Arctigenin as a lead structure for inhibitors of human immunodeficiency virus type-1 integrase” (J Med Chem, 1996).
pIC50: −log10 of the molar value.

Columns and labels:
[1] = biological target: Human immunodeficiency virus type 1 integrase (Human immunodeficiency virus 1) (UniProt Q7ZJM1); assay: Inhibitory activity against 3'-processing by HIV-1 Integrase at 100 uM
[2] = biological target: Human immunodeficiency virus type 1 integrase (Human immunodeficiency virus 1) (UniProt Q7ZJM1); assay: Inhibitory activity against strand transfer by HIV-1 Integrase at 100 uM
[3] = biological target: T1, Human immunodeficiency virus type 1 integrase (Human immunodeficiency virus 1, UniProt Q7ZJM1); assay: Inhibitory concentration against Strand transfer by HIV -1 Integrase
[4] = biological target: T1, Human immunodeficiency virus type 1 integrase; assay: Inhibitory concentration against 3'-processing by HIV -1 Integrase

Human immunodeficiency virus type 1 integrase (Human immunodeficiency virus 1), sequence (Q7ZJM1 as listed by the source): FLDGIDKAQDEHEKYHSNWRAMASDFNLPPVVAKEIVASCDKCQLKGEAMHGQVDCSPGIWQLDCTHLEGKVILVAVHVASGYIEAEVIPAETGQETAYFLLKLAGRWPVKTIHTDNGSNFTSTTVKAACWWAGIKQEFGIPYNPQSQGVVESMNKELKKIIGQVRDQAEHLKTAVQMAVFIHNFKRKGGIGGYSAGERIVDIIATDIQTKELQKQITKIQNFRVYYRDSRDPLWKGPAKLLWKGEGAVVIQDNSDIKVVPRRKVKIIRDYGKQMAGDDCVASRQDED
T1 sequence (Q7ZJM1 whole entry): as the sequence (Q7ZJM1 as listed by the source) above

COc1cc([C@@H]2c3cc4c(c(O)c3C[C@H]3COC(=O)[C@H]32)OCO4)cc(OC)c1O
inhibition [1]: < 5%
inhibition [2]: < 5%

COc1cc([C@@H]2c3cc4c(c(O)c3C[C@H]3COC(=O)[C@H]32)OCO4)cc(OC)c1OC
inhibition [1]: < 5%
inhibition [2]: < 5%

COc1cc(C[C@H]2C(=O)OC[C@@H]2Cc2ccc(OC)c(OC)c2)ccc1O
inhibition [1]: < 5%
inhibition [2]: < 5%

COc1cc(C[C@H]2C(=O)OC[C@@H]2Cc2ccc(O)c(O)c2)ccc1O
inhibition [1]: < 5%
inhibition [2]: 41%

O=C1OC[C@H](Cc2ccc3c(c2)OCO3)[C@H]1Cc1ccccc1
inhibition [1]: < 5%
inhibition [2]: < 5%

COc1cc([C@@H]2c3cc4c(c(O)c3C[C@H]3COC(=O)[C@@H]32)OCO4)cc(OC)c1O
inhibition [1]: < 5%
inhibition [2]: < 5%

COc1cc(C[C@H]2COC(=O)[C@@H]2Cc2ccc(O)c(OC)c2)ccc1O
inhibition [1]: < 5%
inhibition [2]: < 5%

O=C1OC[C@H](Cc2ccc3c(c2)OCO3)[C@H]1Cc1cccc(O)c1
inhibition [1]: < 5%
inhibition [2]: < 5%

COc1cc(C[C@@H](CO)[C@H](CO)Cc2ccc(OC)c(OC)c2)ccc1O
inhibition [1]: < 5%
inhibition [2]: < 5%

COc1ccc(C[C@H]2COC(=O)[C@@H]2Cc2cccc(O)c2)cc1OC
inhibition [1]: < 5%
inhibition [2]: < 5%

COc1cc([C@@H]2c3cc4c(cc3C(O)[C@H]3COC(=O)[C@H]23)OCO4)cc(O)c1O (stereo not given in full)
inhibition [1]: < 5%
inhibition [2]: < 5%

COc1cc(C[C@@H](CO)[C@H](CO)Cc2ccc(O)c(OC)c2)ccc1O
inhibition [1]: < 5%
inhibition [2]: < 5%

COc1ccc(C[C@@H](CO)[C@H](CO)Cc2ccc(O)c(O)c2)cc1OC
inhibition [1]: < 5%
inhibition [2]: < 5%

COc1ccc(C[C@@H](CO)[C@@H](Cc2ccc(O)c(O)c2)C(=O)NCc2ccccc2)cc1OC
inhibition [1]: < 5%
inhibition [2]: < 5%

COc1ccc(C[C@H]2COC(=O)[C@@H]2Cc2ccc(O)cc2)cc1OC
inhibition [1]: < 5%
inhibition [2]: < 5%

COc1cc(C[C@@H](C(=O)NCc2ccccc2)[C@H](CO)Cc2ccc(OC)c(OC)c2)ccc1O
inhibition [1]: < 5%
inhibition [2]: < 5%

COc1cc(C[C@H]2COC[C@@H]2Cc2ccc(OC)c(OC)c2)ccc1O
inhibition [1]: < 5%
inhibition [2]: < 5%

COc1ccc(C[C@H]2COC[C@@H]2Cc2ccc(O)c(O)c2)cc1OC
inhibition [1]: < 5%
inhibition [2]: < 5%

COc1ccc(C[C@H]2COC(=O)[C@@H]2Cc2cc(O)c(O)c(O)c2)cc1OC
inhibition [1]: < 5%
inhibition [2]: < 5%

COc1cc([C@@H]2c3cc4c(c(O)c3C[C@H]3COC(=O)[C@@H]32)OCO4)cc(OC)c1OC
inhibition [1]: < 5%
inhibition [2]: < 5%

COc1cc(C[C@H]2COC[C@@H]2Cc2ccc(O)c(OC)c2)ccc1O
inhibition [1]: < 5%
inhibition [2]: < 5%

COc1ccc(C[C@H]2COC(=O)[C@@H]2Cc2ccccc2)cc1OC
inhibition [1]: < 5%
inhibition [2]: < 5%

O=C1OC[C@H](Cc2ccc(O)c(O)c2)[C@H]1Cc1ccc(O)c(O)c1
inhibition [1]: 92%
pIC50 [3]: 5.27
inhibition [2]: 100%
pIC50 [4]: 4.67

O=C1OC[C@H](Cc2ccc3c(c2)OCO3)[C@H]1Cc1ccc(O)cc1
inhibition [1]: < 5%
inhibition [2]: < 5%

COc1cc([C@@H]2c3cc4c(cc3[C@H](O)[C@H]3COC(=O)[C@@H]23)OCO4)cc(OC)c1O
inhibition [1]: < 5%
inhibition [2]: < 5%

COc1ccc(C[C@H]2COC(=O)[C@@H]2Cc2ccc(O)c(O)c2)cc1OC
inhibition [1]: 37%
inhibition [2]: 52%

COc1cc(C[C@H]2C(=O)CC[C@@H]2Cc2ccc(OC)c(OC)c2)ccc1O
inhibition [1]: < 5%
inhibition [2]: < 5%

COc1cc([C@@H]2c3cc4c(cc3[C@H](O)[C@H]3COC(=O)[C@H]23)OCO4)cc(OC)c1O
inhibition [1]: < 5%
inhibition [2]: < 5%

COc1ccc(C[C@H]2CCC(=O)[C@@H]2Cc2ccc(O)c(O)c2)cc1OC
inhibition [1]: < 5%
inhibition [2]: < 5%
